Source: patent publication US20050112573A1, “Method of detecting toxic substance” (priority 2001, published 2005)

System: yeast genes (level of expressed mRNA)
Assay: DNA chip analysis of expressed mRNA of yeast genes after 2 h culture with a toxic chemical substance
Format: cell-based, Saccharomyces cerevisiae S288C
Procedure: Yeast (Saccharomyces cerevtisiae S288C (α SUC2mal mel gap2 CUP1)) were cultured at 25° C. on YPD medium (yeast extract 1%, polypepton 2%, glucose 2%). One of toxic chemical substances was added to the cell at logarithmic growth phase, and the cell was further cultured for two hours. Cell was cultured without any chemical substance in the same condition, and was used as control. Concentrations of the chemical substances were defined to inhibit the growth of the yeast but not lead to death.
After the completion of cultivation, the culture was centrifuged to collect the cells. To the cells, sodium acetate buffer (50 mM sodium acetate, 10 mM EDTA, 1% SDS) was added, and the mixture was shaken at 65° C. for five minutes, followed by returning to room temperature, and obtaining the supernatant, which procedure was repeated two times. To the supernatant, ½ amount of a solution of phenol/chloroform was added, and the mixture was centrifuged to give a supernatant, which was added with an equal amount of chloroform, and the mixture was centrifuged to give a supernatant. To the supernatant, an equal amount of isopropanol containing 0.3 M sodium acetate was added, and the mixture was allowed to stand at room temperature for 30 minutes, after which the mixture was centrifuged to give a sediment of the whole RNAs. Seventy % ethanol was added to the sediment, and the mixture was again centrifuged to give a sediment, which was then dried and dissolved in water. mRNA was isolated from the whole RNAs as followings. In view of the fact that a poly A chain is attached to the 3′ terminus of mRNA, a polynucleotide having a poly T structure which was immobilized on the surface of latex beads was used to trap the mRNA, and then the mRNA was washed and eluted with spine column (Oligotex-dT30<Super>mRNA Purification Kit, Takara). Reverse transcription of the mRNA was conducted with a reverse transcriptase (Super Script II Reverse Transcriptase; catalogue No. 18064-014, GibcoBRL) using fluorescence-labeled nucleotides to give cDNAs that were introduced with Cy3-dUTP or Cy5-dUTP during the reverse transcription.
The labeled cDNAs were dissolved in TE buffer (10 mM Tris-HCl/1 mM EDTA, pH8.0), and the solution was dropped on the DNA chip containing the whole genes of yeast (DNA Chip Research Inc. Japan) so that the cDNAs were hybridized on the DNA chip at 65° C. for over 12 hours. The fluoresces intensity of the DNA chip was read with a scanner, and the ratio relative to the fluorescence intensity resulting from the absence of chemical substance was estimated as the following, which is shown in Tables 1 to 9: [formula]
In the Tables, “Intensity” indicated in the rightmost column is a value of the level of expressed mRNA of each gene in control cells as divided by the average level of the expressions of the whole genes.

With γ-hexachlorocyclohexane [(7)] the “The level of expressed mRNA in the presence of chemical substance/The level of expressed mRNA in the absence of chemical substance” value (yeast gene YKL096W) was 0.2, the “The level of expressed mRNA in the presence of chemical substance/The level of expressed mRNA in the absence of chemical substance” value (yeast gene YKL139W) was 2.6 and the “The level of expressed mRNA in the presence of chemical substance/” value (yeast gene YKL151C, ratio to control without chemical substance, 2 h culture) was 5.6. The “The level of expressed mRNA in the presence of chemical substance/” value (yeast gene YKL153W, ratio to control without chemical substance, 2 h culture) was 1.1, the “The level of expressed mRNA in the presence of chemical substance/The level of expressed mRNA in the absence of chemical substance” value (yeast gene YKL165C) was 2.1 and the “The level of expressed mRNA in the presence of chemical substance/The level of expressed mRNA in the absence of chemical substance” value (yeast gene YKL193C) was 2.1. The “The level of expressed mRNA in the presence of chemical substance/” value (yeast gene YKL195W, ratio to control without chemical substance, 2 h culture) was 2.1, the “The level of expressed mRNA in the presence of chemical substance/in the absence of chemical substance” value (yeast gene YKR009C) was 1.0 and the “The level of expressed mRNA in the presence of chemical substance/The level of expressed mRNA in the absence of chemical substance” value (yeast gene YKR014C) was 1.7. The “The level of expressed mRNA in the presence of chemical substance/” value (yeast gene YKR091W, ratio to control without chemical) was 1.3, the “The level of expressed mRNA in the presence of chemical substance/” value (yeast gene YLR054C, ratio to control without chemical substance, 2 h culture) was 1.1 and the “The level of expressed mRNA in the presence of chemical substance/The level of expressed mRNA in the absence of chemical substance” value (yeast gene YLR120C) was 1.5. For the same substance, the “The level of expressed mRNA in the presence of chemical substance/The level of expressed mRNA in the absence of chemical substance” value (yeast gene YLR136C) was 3.9, the “The level of expressed mRNA in the presence of chemical substance/” value (yeast gene YLR149C, ratio to control without chemical substance, 2 h culture) was 1.6 and the “The level of expressed mRNA in the presence of chemical substance/” value (yeast gene YLR152C, ratio to control without chemical substance, 2 h culture) was 1.4. The “The level of expressed mRNA in the presence of chemical substance/The level of expressed mRNA in the absence of chemical substance” value (yeast gene YLR178C) was 3.3, the “The level of expressed mRNA in the presence of chemical substance/” value (yeast gene YLR194C, ratio to control without chemical) was 1.0 and the “The level of expressed mRNA in the presence of chemical substance/The level of expressed mRNA in the absence of chemical substance” value (yeast gene YLR250W) was 1.9. For the same substance, the “The level of expressed mRNA in the presence of chemical substance/” value (yeast gene YLR324W, ratio to control without chemical substance, 2 h culture) was 1.0, the “The level of expressed mRNA in the presence of chemical substance/The level of expressed mRNA in the absence of chemical substance” value (yeast gene YLR327C) was 5.7 and the “The level of expressed mRNA in the presence of chemical substance/” value (yeast gene YLR350W, ratio to control without chemical substance, 2 h culture) was 1.2. For the same substance, the “The level of expressed mRNA in the presence of chemical substance/in the absence of chemical substance” value (yeast gene YLR351C) was 1.4, the “The level of expressed mRNA in the presence of chemical substance/The level of expressed mRNA in the absence of chemical substance” value (yeast gene YLR356W) was 1.1 and the “The level of expressed mRNA in the presence of chemical substance/The level of expressed mRNA in the absence of chemical substance” value (yeast gene YLR362W) was 1.9. The “The level of expressed mRNA in the presence of chemical substance/in the absence of chemical substance” value (yeast gene YLR375W) was 0.9, the “The level of expressed mRNA in the presence of chemical substance/” value (yeast gene YLR387C, ratio to control without chemical substance, 2 h culture) was 1.1 and the “The level of expressed mRNA in the presence of chemical substance/The level of expressed mRNA in the absence of chemical substance” value (yeast gene YLR391W) was 0.7. The “The level of expressed mRNA in the presence of chemical substance/The level of expressed mRNA in the absence of chemical substance” value (yeast gene YLR429W) was 1.3, the “The level of expressed mRNA in the presence of chemical substance/” value (yeast gene YLR460C, ratio to control without chemical substance, 2 h culture) was 1.1 and the “The level of expressed mRNA in the presence of chemical substance/” value (yeast gene YML117W, ratio to control without chemical substance, 2 h culture) was 0.7. The “The level of expressed mRNA in the presence of chemical substance/The level of expressed mRNA in the absence of chemical substance” value (yeast gene YMR004W) was 1.2, the “The level of expressed mRNA in the presence of chemical substance/” value (yeast gene YMR009W, ratio to control without chemical substance, 2 h culture) was 1.9 and the “The level of expressed mRNA in the presence of chemical substance/” value (yeast gene YMR067C, ratio to control without chemical substance, 2 h culture) was 1.2. The “The level of expressed mRNA in the presence of chemical substance/” value (yeast gene YMR090W, ratio to control without chemical substance, 2 h culture) was 2.7, the “The level of expressed mRNA in the presence of chemical substance/The level of expressed mRNA in the absence of chemical substance” value (yeast gene YMR094W) was 0.8 and the “The level of expressed mRNA in the presence of chemical substance/” value (yeast gene YMR095C, ratio to control without chemical) was 1.2. The “The level of expressed mRNA in the presence of chemical substance/” value (yeast gene YMR097C, ratio to control without chemical substance, 2 h culture) was 1.5, the “The level of expressed mRNA in the presence of chemical substance/” value (yeast gene YMR102C, ratio to control without chemical substance, 2 h culture) was 1.8 and the “The level of expressed mRNA in the presence of chemical substance/The level of expressed mRNA in the absence of chemical substance” value (yeast gene YMR104C) was 1.5. For the same substance, the “The level of expressed mRNA in the presence of chemical substance/” value (yeast gene YMR107W, ratio to control without chemical substance, 2 h culture) was 1.2, the “The level of expressed mRNA in the presence of chemical substance/” value (yeast gene YMR180C, ratio to control without chemical substance, 2 h culture) was 1.7 and the “The level of expressed mRNA in the presence of chemical substance/” value (yeast gene YMR184W, ratio to control without chemical substance, 2 h culture) was 1.6. For the same substance, the “The level of expressed mRNA in the presence of chemical substance/” value (yeast gene YMR191W, ratio to control without chemical substance, 2 h culture) was 2.0, the “The level of expressed mRNA in the presence of chemical substance/The level of expressed mRNA in the absence of chemical substance” value (yeast gene YMR226C) was 1.8 and the “The level of expressed mRNA in the presence of chemical substance/in the absence of chemical substance” value (yeast gene YMR267W) was 1.2. The “The level of expressed mRNA in the presence of chemical substance/The level of expressed mRNA in the absence of chemical substance” value (yeast gene YMR275C) was 0.8, the “The level of expressed mRNA in the presence of chemical substance/The level of expressed mRNA in the absence of chemical substance” value (yeast gene YMR276W) was 1.1 and the “The level of expressed mRNA in the presence of chemical substance/in the absence of chemical substance” value (yeast gene YMR278W) was 1.8. The “The level of expressed mRNA in the presence of chemical substance/in the absence of chemical substance” value (yeast gene YMR293C) was 1.2, the “The level of expressed mRNA in the presence of chemical substance/” value (yeast gene YMR295C, ratio to control without chemical substance, 2 h culture) was 1.3 and the “The level of expressed mRNA in the presence of chemical substance/The level of expressed mRNA in the absence of chemical substance” value (yeast gene YMR314W) was 1.1. For the same substance, the “The level of expressed mRNA in the presence of chemical substance/” value (yeast gene YMR316W, ratio to control without chemical substance, 2 h culture) was 2.0, the “The level of expressed mRNA in the presence of chemical substance/The level of expressed mRNA in the absence of chemical substance” value (yeast gene YNL006W) was 1.6 and the “The level of expressed mRNA in the presence of chemical substance/The level of expressed mRNA in the absence of chemical substance” value (yeast gene YNL007C) was 1.2. The “The level of expressed mRNA in the presence of chemical substance/” value (yeast gene YNL044W, ratio to control without chemical substance, 2 h culture) was 0.9.
